As a reminder, the melting point is the temperature, or range, at which the solid turns liquid. In general, inhibition refers to the drop in the measured response relative to a control, in per cent.

We go through 28 compounds from US8829014B2, “Thiazole and thiophene analogues, and their use in treating autoimmune diseases and cancers” (Board of Supervisors of Louisiana State University and …, priority 2006, dated 2014).

In one data set the test system is NF-κB. Kind of data set: NF-κB inhibitor screen: basal NF-κB-dependent luciferase expression in HEK/NF-κB cell line. In kind it is cell-based. Particulars: 1 uM; determined as described in Example 398; read-out: NFkB inhibition @ 1 uM. An outline of the steps: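 Basal NF-κB-driven luciferase (six-copy element, stable HEK293 line) was read with Brite-Glo. Compound was added in 0.3% DMSO 24 h post-plating, initially at 1.0 μM and then across 10–3300 nM in six steps, in triplicate wells. Signals were expressed relative to DMSO or to the lowest concentration tested.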

The test system of another data set is AP-1. Kind of data set: AP-1 inhibitor screen: basal AP-1-dependent luciferase expression in HEK/AP-1 cell line. The format is cell-based. Particulars: AP1; 1 uM; determined as described in Example 398. Summed up:
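Compound effects on unstimulated reporter signal were tested: 1.0 μM compound (0.3% DMSO) for 48 hr on HEK cells bearing an AP-1 (TGACTAA ×3)-luciferase construct, seeded 24 hr earlier. Triplicate luminescence means were normalized to DMSO-only wells; dose-response experiments were repeated 2–4 times.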

Where only a bound is given, the exact number is not on record here.

In turn, `COC(=O)Nc1nc(-c2ccccc2)c(-c2nc3ccccc3c(=O)n2-c2ccccc2C)s1` [Example 172, [5-(4-Oxo-3-o-tolyl-3,4-dihydro-quinazolin-2-yl)-4-phenyl-thiazol-2-yl]-carbamic acid methyl ester] registered a melting point of over 275 °C. Besides, in the data set with NF-κB, the inhibition at 1 µM stood at 0%. In addition, the inhibition at 1 µM in the data set on AP-1 is 25%.
In turn, `Cc1ccc(C(=O)Nc2nc(-c3ccccc3)c(-c3nc4ccccc4c(=O)n3-c3ccccc3C)s2)cc1` [Example 176, 4-Methyl-N-[5-(4-oxo-3-o-tolyl-3,4-dihydroquinazolin-2-yl)-4-phenyl-thiazol-2-yl]-benzamide] yielded a melting point of over 275 °C. Moreover, the inhibition at 1 µM with NF-κB was -8%. Moreover, the inhibition at 1 µM in the data set with AP-1 was 29%.
The compound `CNc1nc(C)c(-c2nc3ccccc3c(=O)n2-c2cccc(C)c2)s1` [Example 181, 2-(4-methyl-2-methylamino-thiazol-5-yl)-3-m-tolyl-3H-quinazolin-4-one] returned a melting point of over 275 °C. For the same compound, the inhibition at 1 µM in the data set on NF-κB is 10%. The inhibition at 1 µM in the data set with AP-1 stood at 20%.
`Cc1cccc(-n2c(-c3sc(Nc4ccc(Cl)cc4)nc3C)nc3ccccc3c2=O)c1` [Example 183, 2-[2-(4-Chlorophenylamino)-4-methyl-thiazol-5-yl]-3-m-tolyl-3H-quinazolin-4-one] displayed a melting point of 236 to 238 °C. For the same compound, in the data set on NF-κB, the inhibition at 1 µM turned out to be 2%. The inhibition at 1 µM in the data set with AP-1 stood at 39%.
With `CNc1nc(-c2ccccc2)c(-c2nc3ccccc3c(=O)n2-c2cccc(C)c2)s1` [Example 186, 2-(2-methylamino-4-phenyl-thiazol-5-yl)-3-m-tolyl-3H-quinazolin-4-one], the melting point lay in the range of 186 to 187 °C. Also, in the data set with NF-κB, the inhibition at 1 µM is 23%. For the same compound, the inhibition at 1 µM in the data set with AP-1 was determined as 10%.
As for `Cc1cccc(-n2c(-c3sc(NC(=O)c4ccccc4)nc3-c3ccccc3)nc3ccccc3c2=O)c1` [Example 188, N-[5-(4-Oxo-3-m-tolyl-3,4-dihydro-quinazolin-2-yl)-4-phenyl-thiazole-2-yl]benzamide], the melting point was over 275 °C. In addition, the inhibition at 1 µM in the data set on NF-κB turned out to be 42%. The inhibition at 1 µM with AP-1 stood at 63%.
With `Cc1ccc(-n2c(-c3sc(Nc4ccccc4)nc3-c3ccccc3)nc3ccccc3c2=O)cc1` [Example 196, 3-p-Tolyl-2-(4-phenyl-2-phenylamino-thiazol-5-yl)-3H-quinazolin-4-one], the melting point lay within 225 to 228 °C. Further, the inhibition at 1 µM with NF-κB came out at 38%. Further, the inhibition at 1 µM in the data set on AP-1 was found to be 10%.
For the compound `CCOC(=O)Nc1nc(-c2ccccc2)c(-c2nc3ccccc3c(=O)n2-c2cccc(OC)c2)s1` [Example 212, [5-(4-Oxo-3-(3-methoxyphenyl)-3,4-dihydro-quinazolin-2-yl)-4-phenyl-thiazol-2-yl]-carbamic acid ethyl ester], the melting point lay within 204 to 205 °C.
For the compound `COc1cccc(-n2c(-c3sc(NC(=O)c4ccccc4)nc3-c3ccccc3)nc3ccccc3c2=O)c1` [Example 214, N-[5-(4-Oxo-3-(3-methoxyphenyl)-3,4-dihydro-quinazolin-2-yl)-4-phenyl-thiazole-2-yl]benzamide], the melting point lay within 195 to 196 °C. Also, the inhibition at 1 µM in the data set on NF-κB stood at 34%. In addition, the inhibition at 1 µM in the data set with AP-1 amounted to 30%.
Compound `COc1ccc(-n2c(-c3sc(Nc4ccccc4)nc3C)nc3ccccc3c2=O)cc1` [Example 216, 2-(4-Methyl-2-phenylamino-thiazol-5-yl)-3-(4-methoxyphenyl)-3H-quinazolin-4-one] showed a melting point of 265 to 266 °C.
In turn, `COC(=O)Nc1nc(-c2ccccc2)c(-c2nc3ccccc3c(=O)n2-c2ccc(OC)cc2)s1` [Example 219, [5-(4-Oxo-3-(4-methoxyphenyl)-3,4-dihydro-quinazolin-2-yl)-4-phenyl-thiazol-2-yl]-carbamic acid methyl ester] registered a melting point of 272 to 274 °C.
Consider `CNc1nc(-c2ccccc2)c(-c2nc3ccccc3c(=O)n2-c2ccc(OC)cc2)s1` [Example 220, 2-(2-Methylamino-4-phenyl-thiazol-5-yl)-3-(4-methoxyphenyl)-3H-quinazolin-4-one], for which the melting point is 235 to 236 °C.
Regarding `Cc1nc(Nc2ccccc2)sc1-c1nc2ccccc2c(=O)n1-c1ccccc1Cl` [Example 229, 2-(4-Methyl-2-phenylamino-thiazol-5-yl)-3-(2-chloro-phenyl)-3H-quinazolin-4-one], the melting point fell in the range of 228 to 229 °C. In addition, the inhibition at 1 µM in the data set on NF-κB was 6%. Moreover, the inhibition at 1 µM with AP-1 worked out at 21%.
The compound `COC(=O)Nc1nc(-c2ccccc2)c(-c2nc3ccccc3c(=O)n2-c2ccccc2Cl)s1` [Example 232, [5-(4-Oxo-3-(2-chloro-phenyl)-3,4-dihydro-quinazolin-2-yl)-4-phenyl-thiazol-2-yl]-carbamic acid methyl ester] displayed a melting point of over 275 °C. Further, the inhibition at 1 µM with NF-κB is 55%. Moreover, in the data set on AP-1, the inhibition at 1 µM came to 67%.
Compound `Cc1ccc(C(=O)Nc2nc(-c3ccccc3)c(-c3nc4ccccc4c(=O)n3-c3ccccc3Cl)s2)cc1` [Example 236, 4-Methyl-N-[5-(4-oxo-3-(2-chloro-phenyl)-3,4-dihydroquinazolin-2-yl)-4-phenyl-thiazol-2-yl]-benzamide] gave a melting point of over 275 °C.
`Cc1ccc(C(=O)Nc2nc(-c3ccccc3)c(-c3nc4ccccc4c(=O)n3-c3ccc(Cl)cc3)s2)cc1` [Example 254, 4-Methyl-N-[5-(4-oxo-3-(4-Chloro-phenyl)-3,4-dihydroquinazolin-2-yl)-4-phenyl-thiazol-2-yl]-benzamide] displayed a melting point of over 275 °C. In addition, in the data set with NF-κB, the inhibition at 1 µM was 0%. For the same compound, in the data set with AP-1, the inhibition at 1 µM amounted to 2%.
Turning to `COC(=O)Nc1nc(C)c(-c2nc3ccccc3c(=O)n2-c2ccc(C(C)=O)cc2)s1` [Example 260, (4-Methyl-5-(4-oxo-3-(4-acetyl-phenyl)-3,4-dihydro-quinazolin-2-yl)-thiazol-2-yl)-carbamic acid methyl ester], the melting point was 232 to 234 °C.
In the case of `CC(=O)c1ccc(-n2c(-c3sc(Nc4ccccc4)nc3C)nc3ccccc3c2=O)cc1` [Example 262, 2-(4-Methyl-2-phenylamino-thiazol-5-yl)-3-(4-acetyl-phenyl)-3H-quinazolin-4-one], the melting point lay in the range of 271 to 273 °C. The inhibition at 1 µM in the data set with NF-κB came to 15%. Moreover, the inhibition at 1 µM in the data set on AP-1 turned out to be 7%.
As for `CNc1nc(-c2ccccc2)c(-c2nc3ccccc3c(=O)n2-c2ccc(C(C)=O)cc2)s1` [Example 266, 2-(2-Methylamino-4-phenyl-thiazol-5-yl)-3-(4-acetyl-phenyl)-3H-quinazolin-4-one], the melting point fell in the range of 239 to 240 °C. Besides, the inhibition at 1 µM in the data set with NF-κB came out at 4%. Also, in the data set on AP-1, the inhibition at 1 µM came out at 15%.
`Cc1ccccc1-n1c(-c2cc(-c3ccncc3)c(N3CCOCC3)s2)nc2ccccc2c1=O` [Example 283, 2-(5-Morpholin-4-yl-4-pyridin-4-yl-thiophen-2-yl)-3-o-tolyl-3H-quinazolin-4-one] displayed a melting point of 208 to 210 °C.
In turn, `Cc1cccc(-n2c(-c3cc(-c4ccccc4)c(N4CCOCC4)s3)nc3ccccc3c2=O)c1` [Example 284, 2-(5-Morpholin-4-yl-4-phenyl-thiophene-2-yl)-3-m-tolyl-3H-quinazolin-4-one] gave a melting point of 194 to 196 °C.
Same read-out and setting: the figure for `Cc1cccc(-n2c(-c3cc(-c4ccc(Cl)cc4)c(N4CCOCC4)s3)nc3ccccc3c2=O)c1` [Example 285, 2-[4-(4-Chloro-phenyl)-5-morpholin-4-yl-thiophen-2-yl]-3-m-tolyl-3H-quinazolin-4-one] is 228 to 230 °C; for `COc1ccccc1-n1c(-c2cc(-c3ccc(Cl)cc3)c(N3CCOCC3)s2)nc2ccccc2c1=O` [Example 295, 2-[4-(4-Chlorophenyl)-5-morpholin-4-yl-thiophene-2-yl]-3-(2-methoxy-phenyl)-3H-quinazolin-4-one] it is 216 to 217 °C.
As for `COc1cccc(-n2c(-c3cc(-c4ccccc4)c(N4CCOCC4)s3)nc3ccccc3c2=O)c1` [Example 299, 3-(3-Methoxy-phenyl)-2-(5-morpholin-4-yl-4-phenyl-thiophen-2-yl)-3H-quinazolin-4-one], the melting point lay within 269 to 272 °C.
On the same count and under the same terms, the figure for `COc1ccc(-n2c(-c3cc(-c4ccccc4)c(N4CCOCC4)s3)nc3ccccc3c2=O)cc1` [Example 301, 3-(4-Methoxy-phenyl)-2-(5-morpholin-4-yl-4-phenyl-thiophen-2-yl)-3H-quinazolin-4-one] is 164 to 165 °C; for `COc1ccc(-n2c(-c3cc(-c4ccc(Cl)cc4)c(N4CCOCC4)s3)nc3ccccc3c2=O)cc1` [Example 302, 2-[4-(4-Chloro-phenyl)-5-morpholin-4-yl-thiophene-2-yl]-3-(4-methoxy-phenyl)-3H-quinazolin-4-one] it is 217 to 218 °C.
`CNc1nc(-c2ccccc2)c(-c2nc3ccccc3c(=O)n2-c2ccccc2)s1` [Example 320, 2-(2-Methylamino-4-phenyl-thiazole-5-yl)-3-phenyl-3H-quinazolin-4-one] returned a melting point of 224 to 225 °C.
For the compound `COc1ccc(Nc2nc(NC(=O)Nc3ccc(F)cc3)c(-c3cc(C)c(OCC(F)(F)F)cn3)s2)cc1` [Example 367, 1-(4-Fluoro-phenyl)-3-{2-(4-methoxy-phenylamino)-5-[4-methyl-5-(2,2,2-trifluoro-ethoxy)-pyridin-2-yl]-thiazol-4-yl}-urea], the melting point was over 280 °C.
